Experimental findings from patent publication US20070054887A1, “Methods for treating bladder dysfunction” (BioXell S.p.A, priority 2003, published 2007) are described below.

Read-outs that look alike come from different tables or passages of the source.

One data set concerns human bladder cells. Put plainly: inhibition of basal human bladder cell growth. It is filed as cell-based. The note with it: for IC50: Homo sapiens.
The nature of data set [1]: maximum tolerated dose (MTD) in rats. The data set is classed as in vivo. An excerpt:
The maximum tolerated dose (MTD) in rats is also listed for each compound.

As for `CC(=O)OC1C/C(=C/C=C2\CCC[C@]3(C)C(C(C)CCCC(C)(C)O)=CCC23)C[C@@H](OC(C)=O)C1` (some centres unmarked) [1,3-Di-O-acetyl-1,25-dihydroxy-16-ene-19-nor-cholecalciferol], the midpoint of inhibition in the data set on human bladder cells, the IC50, lay at 0.000631 µM. Moreover, in data set [1] (rat, in vivo, read-out: MTD), the maximal tolerated dose (MTD) (usually the highest dose tested that stayed within the study's limit of toxicity) was found to be 3 µg/kg.

`C=C1/C(=C\C=C2/CCC[C@@]3(C)C2CCC3C2(CCCC(C)(C)O)CC2)CC(OC(C)=O)C[C@@H]1OC(C)=O` (some centres unmarked) [1,3-Di-O-acetyl-1,25-dihydroxy-20-cyclopropyl-cholecalciferol]: it took 0.398 µM to reach half-maximal inhibition in the data set with human bladder cells (IC50). Further, in data set [1] (rat, in vivo, read-out: MTD), the MTD came to 30 µg/kg.

On to `C=C1/C(=C\C=C2/CCC[C@]3(C)C(C4(CC#CC(O)(C(F)(F)F)C(F)(F)F)CC4)=CCC23)CC(O)C[C@@H]1O` (stereo partly drawn) [1α,25-Dihydroxy-16-ene-20-cyclopropyl-23,24-yne-26,27 hexafluoro cholecalciferol], for which the IC50 – broadly, the concentration needed to halve the response being measured – in the data set on human bladder cells was 3550 µM. For the same molecule, the MTD in data set [1] (rat, in vivo, read-out: MTD) was determined as 0.3 µg/kg.

Molecule `CC(=O)O[C@@H]1CC(=C/C=C2\CCC[C@]3(C)C([C@H](C)CCC(=O)C(C)(C)O)=CCC23)C[C@@H](OC(C)=O)C1` (some centres unmarked) [1,3-O-Diacetyl-1,25-Dihydroxy-16-ene-24-Keto-19-nor-Cholecalciferol] had an IC50 with human bladder cells of 0.617 µM. Further, the MTD in data set [1] (rat, in vivo, read-out: MTD) was found to be 300 µg/kg. Consider `[2H]C([2H])([2H])C(O)(CCC[C@@H](CC#CC(O)(C(F)(F)F)C(F)(F)F)C1CCC2/C(=C/C=C3C[C@@H](O)C[C@H](O)C3)CCC[C@@]21C)C([2H])([2H])[2H]` (stereo partly drawn) [1,25-Dihydroxy-21(3-hydroxy-3-trifluoromethyl-4-trifluoro-butynyl)-26,27-hexadeutero-19-nor-20S-cholecalciferol], for which, in the data set on human bladder cells, the IC50 was 31600 µM. Also, the maximum tolerated dose (MTD) in data set [1] (rat, in vivo, read-out: MTD) was found to be 0.2 µg/kg. In the same order, the values of `CC(=O)OC1C/C(=C/C=C2\CCC[C@@]3(C)C2CCC3C2(C/C=C\C(O)(C(F)(F)F)C(F)(F)F)CC2)C[C@@H](OC(C)=O)C1` (some centres unmarked) [1,3-Di-O-acetyl-1,25-dihydroxy-20-cyclopropyl-23Z-ene-26,27-hexafluoro-19-nor-cholecalciferol] are 0.2 µM and 10 µg/kg. The molecule `C=C1/C(=C\C=C2/CCC[C@]3(C)C(C(C)CC#CC(C)(C)O)=CCC23)CC(OC(C)=O)C[C@@H]1OC(C)=O` (some centres unmarked) [1,3-Di-O-acetyl-1,25-dihydroxy-16-ene-23-yne-cholecalciferol] had an IC50 in the data set on human bladder cells of 5.01e-05 µM. Moreover, in data set [1] (rat, in vivo, read-out: MTD), the MTD was 10 µg/kg. As to `CC(C)(O)CCCC(CCCC(C)(C)O)[C@H]1CC[C@H]2/C(=C/C=C3C[C@@H](O)C[C@H](O)C3)CCC[C@]12C` [1,25-dihydroxy-21-(3-hydroxy-3-methylbutyl)-19-nor-cholecalciferol], in the data set with human bladder cells, 9.77 µM corresponded to half-maximal inhibition (IC50). `C=C1/C(=C\C=C2/CCC[C@]3(C)C(C(C)CC#CC(O)(C(F)(F)F)C(F)(F)F)=CCC23)CC(OC(C)=O)C[C@@H]1OC(C)=O` (some centres unmarked) [1,3-Di-O-acetyl-1,25-dihydroxy-16-ene-23-yne-26,27-hexafluoro-cholecalciferol] gave an IC50 in the data set on human bladder cells of 0.002 µM. Also, in data set [1] (rat, in vivo, read-out: MTD), the MTD stood at 10 µg/kg. Taken in the same sequence, the figures for `CC(=O)OC1C/C(=C/C=C2\CCC[C@@]3(C)C2CCC3C2(CC#CC(OC(C)=O)(C(F)(F)F)C(F)(F)F)CC2)C[C@@H](OC(C)=O)C1` (some centres unmarked) [1,3,25-Tri-O-acetyl-1,25-dihydroxy-20-cyclopropyl-23-yne-26,27-hexafluoro-19-nor-cholecalciferol] were 0.0398 µM and 10 µg/kg. Taken in the same sequence, the figures for `C=C1/C(=C\C=C2/CCC[C@@]3(C)C2CCC3C(CCCC(C)(C)O)CCC(O)C(C)(C)O)C[C@@H](O)C[C@@H]1O` (stereo partly drawn) [1,25-Dihydroxy-21-(2R,3-dihydroxy-3-methyl-butyl)-20R-Cholecalciferol] were 24 µM and 30 µg/kg. As to `C=C1/C(=C\C=C2/CCC[C@]3(C)C(C4(C/C=C\C(O)(C(F)(F)F)C(F)(F)F)CC4)=CCC23)CC(O)C[C@@H]1O` (stereo partly drawn) [1α,25-Dihydroxy-16-ene-20-cyclopropyl-23,24-Z-ene-26,27-hexafluoro-cholecalciferol], half-maximal inhibition in the data set with human bladder cells (IC50) was put at 0.0794 µM. Also, the MTD in data set [1] (rat, in vivo, read-out: MTD) was found to be 1 µg/kg. Taken in the same sequence, the figures for `C=C1/C(=C\C=C2/CCC[C@]3(C)C(C4(C/C=C/C(O)(C(F)(F)F)C(F)(F)F)CC4)=CCC23)CC(O)C[C@@H]1O` (stereo partly drawn) [1α,25-Dihydroxy-16-ene-20-cyclopropyl-23,24-E-ene-26,27-hexafluoro-cholecalciferol] were 1.58e-05 µM and 0.3 µg/kg. Taken in the same sequence, the figures for `C=C1/C(=C\C=C2/CCC[C@]3(C)C(C(C)CCCC(C)(C)O)=CCC23)CC(OC(C)=O)C[C@@H]1OC(C)=O` (some centres unmarked) [1,3-Di-O-acetyl-1,25-dihydroxy-16-ene-cholecalciferol] were 0.000224 µM and 1 µg/kg.

Molecule `CC(=O)OC1C/C(=C/C=C2\CCC[C@]3(C)C(C(C)CC#CC(C)(C)O)=CCC23)C[C@@H](OC(C)=O)C1` (some centres unmarked) [1,3-Di-O-Acetyl-1,25-dihydroxy-16-ene-23-yne-19-nor-cholecalciferol] had an IC50 in the data set with human bladder cells of 186 µM. In data set [1] (rat, in vivo, read-out: MTD), the maximal tolerated dose (MTD) turned out to be 30 µg/kg. Taken in the same sequence, the figures for `CC(=O)OC1C/C(=C/C=C2\CCC[C@@]3(C)C2CCC3C2(CC#CC(O)(C(F)(F)F)C(F)(F)F)CC2)C[C@@H](OC(C)=O)C1` (some centres unmarked) [1,3-Di-O-acetyl-1,25-dihydroxy-20-cyclopropyl-23-yne-26,27-hexafluoro-19-nor-cholecalciferol] were 0.0012 µM and 10 µg/kg. Taken in the same sequence, the figures for `C=C1/C(=C\C=C2/CCC[C@]3(C)C(C4(CCCC(C)(C)O)CC4)=CCC23)CC(O)C[C@@H]1O` (stereo partly drawn) [1α,25-Dihydroxy-16-ene-20-cyclopropyl-cholecalciferol] were 0.017 µM and 1 µg/kg. Turning to `C=C1/C(=C\C=C2/CCC[C@@]3(C)C2CCC3C(C)CC#CC(C)(C)O)CC(OC(C)=O)C[C@@H]1OC(C)=O` (some centres unmarked) [1,3-Di-O-acetyl-1,25-dihydroxy-23-yne-cholecalciferol], in the data set with human bladder cells, the concentration for half-maximal inhibition (IC50) was less than 10000 µM. Also, in data set [1] (rat, in vivo, read-out: MTD), the MTD stood at 1 µg/kg.

`C=C1C(=CC=C2CCCC3(C)C2CCC3C2(CC#CC(C)(C)O)CC2)CC(OC(C)=O)CC1OC(C)=O` (centres unmarked) [1,3-Di-O-acetyl-1,25-dihydroxy-20-cyclopropyl-23-yne-cholecalciferol]: the “−Log IC50” value in the data set with human bladder cells (basal human bladder cell growth, cells not stimulated with testosterone) is recorded as more than 2. The molecule further registered an MTD in data set [1] of 30 µg/kg. For the molecule `C=C1/C(=C\C=C2/CCC[C@]3(C)C(C(C)C/C=C/C(C)(C)O)=CCC23)CC(OC(C)=O)C[C@@H]1OC(C)=O` (some centres unmarked) [1,3-Di-O-acetyl-1,25-dihydroxy-16,23E-diene-cholecalciferol], half-maximal inhibition in the data set with human bladder cells (IC50) was put at 4.17e-06 µM. Further, in data set [1] (rat, in vivo, read-out: MTD), the MTD turned out to be 3 µg/kg. With `CC(=O)OC1C/C(=C/C=C2\CCC[C@@]3(C)C2CCC3C2(C/C=C/C(O)(C(F)(F)F)C(F)(F)F)CC2)C[C@@H](OC(C)=O)C1` (some centres unmarked) [1,3-Di-O-acetyl-1,25-dihydroxy-20-cyclopropyl-23E-ene-26,27-hexafluoro-19-nor-cholecalciferol], the IC50 in the data set with human bladder cells is 0.00158 µM. Besides, the MTD in data set [1] (rat, in vivo, read-out: MTD) was determined as 0.3 µg/kg.
